This assay addresses T1, human mAChR M4 (Homo sapiens, UniProt P08173).
T1 construct: expressed in transfected cells; host or cells: CHO-K1 (American Type Culture Collection), stably expressing hM4 and Gqi5
T1 sequence (P08173 1-479): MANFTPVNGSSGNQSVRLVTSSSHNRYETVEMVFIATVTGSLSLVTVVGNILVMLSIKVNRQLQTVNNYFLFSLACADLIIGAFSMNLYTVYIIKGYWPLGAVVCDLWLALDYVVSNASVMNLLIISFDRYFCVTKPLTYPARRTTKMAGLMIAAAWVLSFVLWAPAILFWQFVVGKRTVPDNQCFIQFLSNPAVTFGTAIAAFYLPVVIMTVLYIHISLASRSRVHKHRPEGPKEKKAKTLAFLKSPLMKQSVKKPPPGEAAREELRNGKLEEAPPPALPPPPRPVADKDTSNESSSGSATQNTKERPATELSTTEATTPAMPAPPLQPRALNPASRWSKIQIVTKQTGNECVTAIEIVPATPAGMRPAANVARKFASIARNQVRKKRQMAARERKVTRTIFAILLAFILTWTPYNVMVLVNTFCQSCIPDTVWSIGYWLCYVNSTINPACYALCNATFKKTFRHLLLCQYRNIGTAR
As to the kind of experiment: mAChR M4 cell-based functional assay: calcium mobilization (Fluo-4, FDSS), potentiation of EC20 acetylcholine response in hM4-Gqi5 CHO-K1 cells. Particulars: human M4; for Emax at 30 µM: CHO-K1, % ACh maximum at 30 μM; for EC50: potentiation of EC20 acetylcholine response, calcium mobilization. In a few lines: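 CHO-K1 cells stably co-expressing human M4 and chimeric Gqi5, loaded with Fluo-4 AM (50 min, 37 °C). Compounds in 11-point 1:3 series added first; EC20 acetylcholine added at 144 s and again at 230 s. Calcium read on FDSS at 1 Hz; EC50 and Emax from four-parameter logistic fit of potentiated EC20 response.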
Background: A change in cytosolic calcium serves as a functional read-out for many receptors and channels.

Structures are written as SMILES.

The values that follow come from patent US20250101041A1, “POSITIVE ALLOSTERIC MODULATORS OF THE MUSCARINIC ACETYLCHOLINE RECEPTOR M4” (Vanderbilt University, priority 2022, published 2025).

What is called Emax is the maximal effect, on the per cent scale that the assay sets. One may read the EC50 as the concentration that produces a half-maximal response. `Cc1cc(Cl)c(-c2cnc3c(c2)CN(c2nn4c(=O)cc(C(F)F)nc4c(C)c2C)CC3)cn1` [Compound 1-187, 7-(3-(4-chloro-6-methylpyridin-3-yl)-7,8-dihydro-1,6-naphthyridin-6(5H)-yl)-2-(difluoromethyl)-8,9-dimethyl-4H-pyrimido[1,2-b]pyridazin-4-one]: the Emax at 30 µM was determined as 95% and the EC50 amounted to 109 nM.
Regarding `COc1cc(C)c(-c2cnc3c(c2)CN(c2nn4c(=O)cc(C(F)F)nc4c(C)c2C)CC3)cn1` [Compound 1-188, 2-(difluoromethyl)-7-(3-(6-methoxy-4-methylpyridin-3-yl)-7,8-dihydro-1,6-naphthyridin-6(5H)-yl)-8,9-dimethyl-4H-pyrimido[1,2-b]pyridazin-4-one], the Emax at 30 µM was found to be 91% and the EC50 came to 103 nM.
Taken in the same sequence, the figures for `Cc1c(N2CCc3ncc(-c4cnccc4C(F)(F)F)cc3C2)nn2c(=O)cc(C(F)F)nc2c1C` [Compound 1-189, 2-(difluoromethyl)-8,9-dimethyl-7-(3-(4-(trifluoromethyl)pyridin-3-yl)-7,8-dihydro-1,6-naphthyridin-6(5H)-yl)-4H-pyrimido[1,2-b]pyridazin-4-one] were 48% and 515 nM.
`COc1ccncc1-c1cnc2c(c1)CN(c1nn3c(=O)cc(C(F)F)nc3c(C)c1C)CC2` [Compound 1-190, 2-(difluoromethyl)-7-(3-(4-methoxypyridin-3-yl)-7,8-dihydro-1,6-naphthyridin-6(5H)-yl)-8,9-dimethyl-4H-pyrimido[1,2-b]pyridazin-4-one]: the Emax at 30 µM came to 77% and the EC50 stood at 156 nM.
For `Cc1ccc(-c2cnc3c(c2)CN(c2nn4c(=O)cc(C(F)F)nc4c(C)c2C)CC3)cc1F` [Compound 1-191, 2-(difluoromethyl)-7-(3-(3-fluoro-4-methylphenyl)-7,8-dihydro-1,6-naphthyridin-6(5H)-yl)-8,9-dimethyl-4H-pyrimido[1,2-b]pyridazin-4-one] the same measures were 84% and 2400 nM.
For `Cc1c(N2CCc3ncc(-c4cnn(C5CCOCC5)c4)cc3C2)nn2c(=O)ccnc2c1C` [Compound 1-192, 8,9-dimethyl-7-(3-(1-(tetrahydro-2H-pyran-4-yl)-1H-pyrazol-4-yl)-7,8-dihydro-1,6-naphthyridin-6(5H)-yl)-4H-pyrimido[1,2-b]pyridazin-4-one] the same measures were 64% and 139 nM.
On to `Cc1c(N2CCc3ncc(-c4cnn(-c5ccccc5F)c4)cc3C2)nn2c(=O)ccnc2c1C` [Compound 1-193, 7-(3-(1-(2-fluorophenyl)-1H-pyrazol-4-yl)-7,8-dihydro-1,6-naphthyridin-6(5H)-yl)-8,9-dimethyl-4H-pyrimido[1,2-b]pyridazin-4-one], for which the Emax at 30 µM was 71% and the 50% effective concentration (EC50) turned out to be 783 nM.
Turning to `Cc1ccc(F)cc1-c1cnc2c(c1)CN(c1nn3c(=O)ccnc3c(C)c1C)CC2` [Compound 1-194, 7-(3-(5-fluoro-2-methylphenyl)-7,8-dihydro-1,6-naphthyridin-6(5H)-yl)-8,9-dimethyl-4H-pyrimido[1,2-b]pyridazin-4-one], the Emax at 30 µM amounted to 83% and the EC50 is 93 nM.
Regarding `Cc1cc2nc(C(C)(C)O)cc(=O)n2nc1N1CCc2ncc(C(F)(F)F)cc2C1` [Compound 1-195, 2-(2-hydroxypropan-2-yl)-8-methyl-7-(3-(trifluoromethyl)-7,8-dihydro-1,6-naphthyridin-6(5H)-yl)-4H-pyrimido[1,2-b] pyridazin-4-one], the Emax at 30 µM was 82% and the EC50 is 185 nM.
Regarding `Cc1cc(=O)n2nc(N3CCc4ncc(-c5ccc(C)c(F)c5)cc4C3)c(C)c(C)c2n1` [Compound 1-196, 7-(3-(3-fluoro-4-methylphenyl)-7,8-dihydro-1,6-naphthyridin-6(5H)-yl)-2,8,9-trimethyl-4H-pyrimido[1,2-b]pyridazin-4-one], the Emax at 30 µM was found to be 80% and the EC50 amounted to 1130 nM.
For `Cc1cc(=O)n2nc(N3CCc4ncc(-c5cnc(Cl)cc5C)cc4C3)c(C)c(C)c2n1` [Compound 1-197, 7-(3-(6-chloro-4-methylpyridin-3-yl)-7,8-dihydro-1,6-naphthyridin-6(5H)-yl)-2,8,9-trimethyl-4H-pyrimido[1,2-b]pyridazin-4-one] the same measures were 81% and 275 nM.
For `COc1cc(C)c(-c2cnc3c(c2)CN(c2nn4c(=O)cc(C)nc4c(C)c2C)CC3)cn1` [Compound 1-198, 7-(3-(6-methoxy-4-methylpyridin-3-yl)-7,8-dihydro-1,6-naphthyridin-6(5H)-yl)-2,8,9-trimethyl-4H-pyrimido[1,2-b]pyridazin-4-one] the same measures were 83% and 1920 nM.
For `COc1cncc(-c2cnc3c(c2)CN(c2nn4c(=O)cc(C)nc4c(C)c2C)CC3)c1` [Compound 1-199, 7-(3-(5-methoxypyridin-3-yl)-7,8-dihydro-1,6-naphthyridin-6(5H)-yl)-2,8,9-trimethyl-4H-pyrimido[1,2-b]pyridazin-4-one], the Emax at 30 µM came to 74% and the EC50 was 526 nM.
Consider `Cc1cc(=O)n2nc(N3CCc4ncc(-c5cc(F)c(F)cc5F)cc4C3)c(C)c(C)c2n1` [Compound 1-200, 2,8,9-trimethyl-7-(3-(2,4,5-trifluorophenyl)-7,8-dihydro-1,6-naphthyridin-6(5H)-yl)-4H-pyrimido[1,2-b] pyridazin-4-one], for which the Emax at 30 µM turned out to be 84% and the EC50 was determined as 531 nM.
Turning to `COc1ccc(-c2cnc3c(c2)CN(c2nn4c(=O)cc(C)nc4c(C)c2C)CC3)cc1F` [Compound 1-201, 7-(3-(3-fluoro-4-methoxyphenyl)-7,8-dihydro-1,6-naphthyridin-6(5H)-yl)-2,8,9-trimethyl-4H-pyrimido[1,2-b]pyridazin-4-one], the Emax at 30 µM came to 86% and the EC50 is 603 nM.
For `Cc1cc(=O)n2nc(N3CCc4ncc(-c5cnc(F)cc5C)cc4C3)c(C)c(C)c2n1` [Compound 1-202, 7-(3-(6-fluoro-4-methylpyridin-3-yl)-7,8-dihydro-1,6-naphthyridin-6(5H)-yl)-2,8,9-trimethyl-4H-pyrimido[1,2-b]pyridazin-4-one] the same measures were 91% and 104 nM.
Taken in the same sequence, the figures for `Cc1cc(=O)n2nc(N3CCc4ncc(-c5cccc(F)c5)cc4C3)c(C)c(C)c2n1` [Compound 1-203, 7-(3-(3-fluorophenyl)-7,8-dihydro-1,6-naphthyridin-6(5H)-yl)-2,8,9-trimethyl-4H-pyrimido[1,2-b]pyridazin-4-one] were 80% and 417 nM.
In the case of `Cc1cc(=O)n2nc(N3CCc4ncc(-c5ccc(F)nc5)cc4C3)c(C)c(C)c2n1` [Compound 1-204, 7-(3-(6-fluoropyridin-3-yl)-7,8-dihydro-1,6-naphthyridin-6(5H)-yl)-2,8,9-trimethyl-4H-pyrimido[1,2-b]pyridazin-4-one], the Emax at 30 µM worked out at 92% and the EC50 stood at 102 nM.
As for `Cc1cc(=O)n2nc(N3CCc4ncc(-c5ccc(F)c(F)c5)cc4C3)c(C)c(C)c2n1` [Compound 1-205, 7-(3-(3,4-difluorophenyl)-7,8-dihydro-1,6-naphthyridin-6(5H)-yl)-2,8,9-trimethyl-4H-pyrimido[1,2-b]pyridazin-4-one], the Emax at 30 µM came out at 81% and the EC50 was found to be 1240 nM.
